The target in data set [1] is Human OGA (recombinant hOGA protein) (Homo sapiens (Human), UniProt O60502). As to the kind of experiment: Human OGA enzyme activity assay (fluorescence, 4-Methylumbelliferyl N-acetyl-β-D-glucosaminide substrate). Conditions: for IC50: Table 1; for % of inhibition: Table 1, test concentration not given. The format is biochemical.
Human OGA (recombinant hOGA protein), sequence (O60502 whole entry): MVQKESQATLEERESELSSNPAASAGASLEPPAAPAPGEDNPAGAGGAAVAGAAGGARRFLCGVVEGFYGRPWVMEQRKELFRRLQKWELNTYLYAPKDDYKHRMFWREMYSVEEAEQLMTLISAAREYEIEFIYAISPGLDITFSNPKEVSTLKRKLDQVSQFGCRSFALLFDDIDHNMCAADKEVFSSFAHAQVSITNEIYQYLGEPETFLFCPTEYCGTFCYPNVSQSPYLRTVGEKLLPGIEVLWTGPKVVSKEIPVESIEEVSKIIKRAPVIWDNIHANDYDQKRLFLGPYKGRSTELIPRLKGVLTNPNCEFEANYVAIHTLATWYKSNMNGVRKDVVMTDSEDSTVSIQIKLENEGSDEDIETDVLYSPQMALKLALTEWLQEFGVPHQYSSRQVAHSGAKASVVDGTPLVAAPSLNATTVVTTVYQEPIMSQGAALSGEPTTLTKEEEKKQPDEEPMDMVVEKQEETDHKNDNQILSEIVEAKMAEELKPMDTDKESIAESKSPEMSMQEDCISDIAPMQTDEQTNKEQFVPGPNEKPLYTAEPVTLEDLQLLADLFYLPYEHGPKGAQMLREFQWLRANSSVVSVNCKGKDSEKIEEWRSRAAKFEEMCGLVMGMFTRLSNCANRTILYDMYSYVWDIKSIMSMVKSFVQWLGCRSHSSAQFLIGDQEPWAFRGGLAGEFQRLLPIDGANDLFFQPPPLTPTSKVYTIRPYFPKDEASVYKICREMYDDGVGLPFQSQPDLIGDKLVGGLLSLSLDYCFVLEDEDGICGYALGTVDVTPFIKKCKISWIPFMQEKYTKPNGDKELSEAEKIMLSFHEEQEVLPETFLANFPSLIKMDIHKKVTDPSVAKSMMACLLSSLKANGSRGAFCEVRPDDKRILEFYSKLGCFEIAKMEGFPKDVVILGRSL

Regarding “1-((2-acetamidothiazol-5-yl)methyl)-N-(4-fluorophenyl)piperidine-4-carboxamide [Compound B-14]”, in data set [1], the IC50 is 300 nM and the “% of inhibition” value stood at 89.0%.

Regarding “1-((2-acetamidothiazol-5-yl)methyl)-N-(p-tolyl)piperidine-4-carboxamide [Compound B-15]”, in data set [1], the IC50 turned out to be 160 nM and the “% of inhibition” value amounted to 91.2%.

Turning to `CC(=O)Nc1ncc(CN2CCN(CC(=O)Nc3ccccc3)CC2)s1` [Compound A-1, 2-(4-((2-acetamidothiazol-5-yl)methyl)piperazin-1-yl)-N-phenylacetamide], in data set [1], the IC50 worked out at 2600 nM and the “% of inhibition” value worked out at 78.3%.

`CC(=O)Nc1ncc(CN2CCN(CC(=O)Oc3ccccc3)CC2)s1` [Compound A-2, phenyl 2-(4-((2-acetamidothiazol-5-yl)methyl)piperazin-1-yl)acetate] returned a melting point of 185 to 194 °C. The “% of inhibition” value in data set [1] is on record as 34.6%.

In turn, `CC(=O)Nc1ncc(CN2CCN(CC(=O)Nc3ccc(C)cc3)CC2)s1` [Compound A-3, 2-(4-((2-acetamidothiazol-5-yl)methyl)piperazin-1-yl)-N-(p-tolyl)acetamide] came in with a melting point of 213 to 217 °C. Further, in data set [1], the “% of inhibition” value came out at 70.7%.

For `CC(=O)Nc1ncc(CN2CCN(CC(=O)Nc3ccccc3C)CC2)s1` [Compound A-4, 2-(4-((2-acetamidothiazol-5-yl)methyl)piperazin-1-yl)-N-(o-tolyl)acetamide], the melting point lay in the range of 194 to 196 °C. The “% of inhibition” value in data set [1] came out at 47.6%.

On to `CC(=O)Nc1ncc(CN2CCN(CC(=O)Nc3cccc(C)c3)CC2)s1` [Compound A-5, 2-(4-((2-acetamidothiazol-5-yl)methyl)piperazin-1-yl)-N-(m-tolyl)acetamide], for which the melting point lay in the range of 202 to 204 °C. Also, in data set [1], the “% of inhibition” value amounted to 62.4%.

`CC(=O)Nc1ncc(CN2CCN(CC(=O)Nc3ccc(C(C)C)cc3)CC2)s1` [Compound A-6, 2-(4-((2-acetamidothiazol-5-yl)methyl)piperazin-1-yl)-N-(4-isopropylphenyl) acetamide]: the melting point fell in the range of 173 to 176 °C. Moreover, the “% of inhibition” value in data set [1] was 79.2%.

In the case of `COc1ccc(NC(=O)CN2CCN(Cc3cnc(NC(C)=O)s3)CC2)cc1` [Compound A-7, 2-(4-((2-acetamidothiazol-5-yl)methyl)piperazin-1-yl)-N-(4-methoxyphenyl)acetamide], the melting point is 217 to 220 °C. Besides, in data set [1], the IC50 was 840 nM and the “% of inhibition” value is recorded as 84.2%.

Turning to `COc1ccc(CCNC(=O)CN2CCN(Cc3cnc(NC(C)=O)s3)CC2)cc1` [Compound A-8, 2-(4-((2-acetamidothiazol-5-yl)methyl)piperazin-1-yl)-N-(4-methoxyphenethyl) acetamide], the melting point lay in the range of 177 to 179 °C. Moreover, in data set [1], the IC50 was determined as 630 nM and the “% of inhibition” value is listed as 85.4%.

As for `COc1cccc(NC(=O)CN2CCN(Cc3cnc(NC(C)=O)s3)CC2)c1` [Compound A-9, 2-(4-((2-acetamidothiazol-5 yl)methyl)piperazin-1-yl)-N-(3-methoxyphenyl) acetamide.], the melting point lay in the range of 210 to 212 °C. Further, the “% of inhibition” value in data set [1] was found to be 59.9%.

Molecule `COc1ccc(NC(=O)CN2CCN(Cc3cnc(NC(C)=O)s3)CC2)cc1OC` [Compound A-10, 2-(4-((2-acetamidothiazol-5-yl)methyl)piperazin-1-yl)-N-(3,4-dimethoxyphenyl)acetamide] gave a melting point of 182 to 184 °C. Moreover, the “% of inhibition” value in data set [1] came to 62.4%.

Molecule `CC(=O)Nc1ncc(CN2CCN(CC(=O)Nc3ccc(F)cc3)CC2)s1` [Compound A-11, 2-(4-((2-acetamidothiazol-5-yl)methyl)piperazin-1-yl)-N-(4-fluorophenyl)acetamide] displayed a melting point of 212 to 215 °C. Moreover, in data set [1], the IC50 amounted to 2610 nM and the “% of inhibition” value came out at 85.7%.

`CC(=O)Nc1ncc(CN2CCN(CC(=O)Nc3ccc(Cl)cc3)CC2)s1` [Compound A-12] returned a melting point of 232 to 236 °C. Also, in data set [1], the IC50 was 1990 nM and the “% of inhibition” value turned out to be 81.6%.

In the case of `CC(=O)Nc1ncc(CN2CCN(CC(=O)Nc3ccc(Cl)cc3Br)CC2)s1` [Compound A-13, 2-(4-((2-acetamidothiazol-5-yl)methyl)piperazin-1-yl)-N-(2-bromo-4-chlorophenyl)acetamide], the melting point lay within 212 to 213 °C. Also, in data set [1], the IC50 was found to be 1700 nM and the “% of inhibition” value stood at 85.2%.

As for `CC(=O)Nc1ccc(NC(=O)CN2CCN(Cc3cnc(NC(C)=O)s3)CC2)cc1` [Compound A-14, N-(4-acetamidophenyl)-2-(4-((2-acetamidothiazol-5-yl)methyl)piperazin-1-yl)acetamide], the melting point lay within 234 to 237 °C. In data set [1], the IC50 was determined as 1250 nM and the “% of inhibition” value was 80.0%.

For the molecule `CC(=O)Nc1ncc(CN2CCN(CC(=O)Nc3ccccn3)CC2)s1` [Compound A-15, 2-(4-((2-acetamidothiazol-5-yl)methyl)piperazin-1-yl) N-(pyridin-2-yl)acetamide], in data set [1], the “% of inhibition” value came out at 90.9%.

For `CC(=O)Nc1ncc(CN2CCN(CC(=O)Nc3cccc(C)n3)CC2)s1` [Compound A-16], the melting point fell in the range of 224 to 228 °C. Further, the “% of inhibition” value in data set [1] is given as 38.6%.

As for `CC(=O)Nc1ncc(CN2CCN(CC(=O)Nc3ccc(C)cn3)CC2)s1` [Compound A-17, 2-(4-((2-acetamidothiazol-5-yl)methyl)piperazin-1-yl)-N-(5-methylpyridin-2-yl) acetamide], the melting point was in the range of 224 to 230 °C. The “% of inhibition” value in data set [1] is 64.3%.

In turn, `CC(=O)Nc1ncc(CN2CCN(CC(=O)Nc3cc(C)ccn3)CC2)s1` [Compound A-18, 2-(4-((2-acetamidothiazol-5-yl)methyl)piperazin-1-yl)-N-(4-methylpyridin-2-yl) acetamide] displayed a melting point of 210 to 211 °C. Also, in data set [1], the “% of inhibition” value was 48.8%.

`CC(=O)Nc1ncc(CN2CCN(CC(=O)Nc3cnccn3)CC2)s1` [Compound A-19, 2-(4-((2-acetamidothiazol-5-yl)methyl)piperazin-1-yl)-N-(pyrazin-2-yl)acetamide] gave a melting point of 224 to 226 °C. Moreover, in data set [1], the “% of inhibition” value was 74.7%.

As for `CC(=O)Nc1ncc(CN2CCN(CC(=O)NC3CCCCC3)CC2)s1` [Compound A-20, 2-(4-((2-acetamidothiazol-5-yl)methyl)piperazin-1-yl)-N-cyclohexylacetamide], the melting point was in the range of 198 to 200 °C. For the same molecule, in data set [1], the IC50 stood at 1400 nM and the “% of inhibition” value is 89.0%.

Turning to `CC(=O)Nc1ncc(CN2CCN(CC(=O)Nc3nccs3)CC2)s1` [Compound A-21, 2-(4-((2-acetamidothiazol-5-yl)methyl)piperazin-1-yl)-N-(thiazol-2-yl)acetamide], the melting point lay within 237 to 240 °C. Further, the “% of inhibition” value in data set [1] was 59.1%.

`CC(=O)Nc1ncc(CN2CCN(CC(=O)Nc3ccc4ncccc4c3)CC2)s1` [Compound A-22, 2-(4-((2-acetamidothiazol-5-yl)methyl)piperazin-1-yl)-N-(quinolin-6-yl)acetamide] gave a melting point of 248 to 250 °C. In data set [1], the IC50 came to 900 nM and the “% of inhibition” value stood at 97.5%.

`CC(=O)Nc1ncc(CN2CCN(CC(=O)Nc3ccc4nccnc4c3)CC2)s1` [Compound A-23, 2-(4-((2-acetamidothiazol-5-yl)methyl)piperazin-1 yl)-N-(quinoxalin-6-yl)acetamide]: the melting point fell in the range of 234 to 235 °C. Moreover, the “% of inhibition” value in data set [1] is on record as 70.1%.

In turn, `CC(=O)Nc1ncc(CN2CCN(CC(=O)Nc3cccc4ccccc34)CC2)s1` [Compound A-24, 2-(4-((2-acetamidothiazol-5-yl)methyl)piperazin-1-yl)-N-(naphthalen-1-yl)acetamide] showed a melting point of 257 to 258 °C. Further, the “% of inhibition” value in data set [1] worked out at 71.3%.

Molecule `CC(=O)Nc1ncc(CN2CCN(CC(=O)Nc3ccc4[nH]ccc4c3)CC2)s1` [Compound A-25, 2-(4-((2-acetamidothiazol-5-yl)methyl)piperazin-1-yl)-N-(1H-indol-5-yl)acetamide] showed a melting point of 216 to 219 °C. The “% of inhibition” value in data set [1] is given as 59.2%.

As to `CC(=O)Nc1ncc(CN2CCN(CC(=O)Nc3nc4ccccc4[nH]3)CC2)s1` [Compound A-26, 2-(4-((2-acetamidothiazol-5-yl)methyl)piperazin-1-yl)-N-(1H-benzo[d]imidazol-2-yl)acetamide], the melting point was 233 to 236 °C. In addition, in data set [1], the “% of inhibition” value amounted to 62.6%.

The molecule `CC(=O)Nc1ncc(CN2CCN(CC(=O)Nc3nc4ccccc4s3)CC2)s1` [Compound A-27, 2-(4-((2-acetamidothiazol-5-yl)methyl)piperazin-1 yl)-N-(benzo[d]thiazol-2-yl)acetamide] had a melting point of 248 to 249 °C. The “% of inhibition” value in data set [1] is 46.2%.

With `COc1ccc2nc(NC(=O)CN3CCN(Cc4cnc(NC(C)=O)s4)CC3)sc2c1` [Compound A-28, 2-(4-((2-acetamidothiazol-5-yl)methyl)piperazin-1-yl)-N-(6-methoxybenzo[d]thiazol-2-yl)acetamide], in data set [1], the “% of inhibition” value amounted to 19.2%.

As for `CC(=O)Nc1ncc(CN2CCC(C(=O)NC(C)c3ccc(C)cc3)CC2)s1` (stereo not shown) [Compound B-11, 1-((2-acetamidothiazol-5-yl)methyl)-N-(1-(p-tolyl)ethyl)piperidine-4-carboxamide], in data set [1], the IC50 was 830 nM and the “% of inhibition” value was 93.3%.

On to `CC(=O)Nc1ncc(CN2CCC(C(=O)NC(C)c3ccc4ccccc4c3)CC2)s1` (stereo not shown) [Compound B-12, 1-((2-acetamidothiazol-5 yl)methyl)-N-(1-(naphthalen-2-yl)ethyl)piperidine-4-carboxamide], for which, in data set [1], the half-inhibitory concentration (IC50) turned out to be 250 nM and the “% of inhibition” value was determined as 96.8%.

Values taken from patent US20240018135A1, “COMPOUND HAVING INHIBITORY ACTIVITY AGAINST O-GLUSACASE AND USE THEREOF” (MEDIFRON DBT INC., priority 2020, published 2024).
